Data from patent publication US4497803A, “Inclusion compound of lankacidin-group antibiotic and use thereof” (priority 1982, dated 1985).
In brackets after ≈: the same amount, converted by molar mass. Where two headings read alike, the source gives them in different places.

Experiments:
[1] = Solubility of lankacidin-group in β-CD solution (10^-2 Mol/l), shaken 30 minutes to one hour (Example 4); assay type: physicochemical
Description: (§1) Powdery lankacidin C was added to an aqueous solution of cyclodextrin (hereinafter referred to as "CD") to have 4 mg/ml of the lankacidin C contained. After the mixture was stirred with a mixer, it was shaken at 5° C. for 2 hours, and passed through filter paper. The absorbancy of the filtrate was measured at 227-229 nm to determine concentration of the lankacidin C.
The solubility of lankacidin-group in a solution of β-CD (10^-2 Mol/l) were measured in the same manner as that of Example 1 except that the shaking was continued for 30 minutes to one hour.

St. aureus 209P = test: Stability of inclusion compound of lankacidin-group (24° C., for 6 days): antibacterial activity by paper disk assay; assay type: cell-based; conditions: methanol, 1000 μg/ml
Description: The inclusion compound of the present invention is stable in an aqueous solution, although it splits into lankacidin-group moiety and cyclodextrins moiety, when it is in the form of solution or powder, by contacting it with organic solvents (e.g., ethyl acetate, methyl isobutyl ketone) or various carriers (e.g., silica gel, high-porous resins). […] In comparing the antibacterial activity, concentrations of the inclusion compound are calculated in terms of lankacidin-group compound from which the inclusion compound is prepared.
Stability of inclusion compound of lankacidin-group
*1 Paper disk assay using Trypticase soy agar (Baltimore Biologicals Ltd.
U.S.A.) as test culture media.
*2 1000 μg/ml, Lankacidingroup is stable in methanol.
*3 Aqueous solution of the inclusion compound with cyclodextrin (1000
μg/ml calculated in terms of lankacidingroup)

[2] = Solubility of inclusion compound in water; assay type: physicochemical
Description: The lankacidin-group is added to each of solutions containing various amounts of cyclodextrin. The minimum concentration of cyclodextrin which dissolves the maximum amount of the lankacidin-group compound and practical concentrations thereof are determined on the basis of amounts of the lankacidin-group compound dissolved in the cyclodextrin solutions. Then, the molar ratio of cyclodextrin to lankacidin-group compound is calculated by the following equation:
Molar ratio=[Molarity of cyclodextrin]:[(Saturation molarity of lankacidin-group compound in a certain concentration of cyclodextrin-solution)-(saturation molarity of lankacidin-group compound in an aqueous solution)].
Moreover, a large amount of the present inclusion compound is dissolved in water and it is kept stably therein. Solubility of the inclusion compound in water is greater than that of landacidin-group compounds in water, when the amount of the inclusion compound dissolved is calculated in terms of lankacidin-group compound, and than saturation concentration of cyclodextrin in water so far as cyclodextrin contained in the inclusion compound is concerned (Table 2).
(1) Solubility of lankacidingroup in water.
(2) Solubility of lankacidingroup in M/100 cyclodextrin solution.
(3) Concentration of cyclodextrin of (2).
(4) Solubility (maximum) of the present inclusion compound (calculated in
terms of lankacidingroup contained) in water.
(5) Concentration of cyclodextrin contained in the inclusion compound of […]

[3] = Solubility in β-CD solution, shaken 16 hours (Example 3); assay type: physicochemical
Description: as §1
The solubilities of lankacidin A, lankacidin C and lankacidinol in a β-CD solution were measured in the same manner as that of Example 1 except that the shaking was continued for 16 hours.

[4] = Solubility of C8-P and C14-P in CD solution, shaken one hour (Example 2); assay type: physicochemical
Description: as §1
Solubilities of lankacidin C 8-propionate (hereinafter referred to as "C8-P"), and lankacidin C 14-propionate (hereinafter referred to as "C14-P") in a solution of CD were measured in the same manner as that of Example 1 except that the shaking was continued for one hour.

[5] = aqueous β-cd solution, β-CD 10^-2 Mol/l
[6] = aqueous β-cd solution, β-CD 10^-3 Mol/l
[7] = aqueous β-cyclodextrin solution, β-CD 10^-2 Mol/l, read-out: Solubility
[8] = β-CD 0 Mol/l (water), read-out: Solubility
[9] = aqueous β-cd solution, β-CD 10^-4 Mol/l
[10] = aqueous γ-cd solution, γ-CD 10^-2 Mol/l
[11] = aqueous γ-cd solution, γ-CD 10^-3 Mol/l
[12] = aqueous γ-cd solution, γ-CD 10^-4 Mol/l

In the case of `CC(=O)OC1C=CC(C)=CC(NC(=O)C(C)OC(C)=O)C2(C)C(=O)OC(CC(OC(C)=O)C=CC(C)=CC1)C(C)C2=O` (centres unmarked) [Lankacidinol 2',8,14-triacetate], the “ratio: Solubility in a 10^-2 Mol/l solution of CD/solubility in water” value (shortened to “ratio: Solubility”) [1] is reported as 9.0, the solubility ([1]; aqueous β-cyclodextrin solution) is reported as 332 µg/mL (≈ 565 µM) and the solubility ([1]; water) is reported as 36.9 µg/mL (≈ 62.8 µM).
For `CC1=CCC(O)C=CC(C)=CC(NC(=O)C(C)O)C2(C)C(=O)OC(CC(O)C=C1)C(C)C2=O` (centres unmarked) [Lankacidinol, lankacidinol], the “Antibacterial activity, inhibition diameter” value (St. aureus 209P; 0 day) was 25.75 mm, the “Antibacterial activity, inhibition diameter” value (St. aureus 209P; 3 days at 24° C.) was 27.0 mm and the “Antibacterial activity, inhibition diameter” value (St. aureus 209P; 6 days at 24° C.) was 30.0 mm. It also gave a solubility ([2]; m/100 cyclodextrin solution, M/100 cyclodextrin, (3) cyclodextrin 11.3 mg/ml, read-out: (2) Solubility of lankacidin-group in M/100 cyclodextrin solution) of 3780 µg/mL (≈ 8190 µM), a solubility ([2]; water, read-out: (1) Solubility of lankacidin-group in water) of 655 µg/mL (≈ 1420 µM) and a solubility at 16 h ([3]; aqueous β-cd solution, β-CD 2 × 10^-3 Mol/l) of 1360 µg/mL (≈ 2950 µM). It also gave a solubility at 16 h ([3]; aqueous β-cd solution, β-CD 5 × 10^-3 Mol/l) of 2130 µg/mL (≈ 4610 µM), a solubility at 16 h [3, 5] of 2750 µg/mL (≈ 5960 µM) and a solubility at 16 h [3, 6] of 914 µg/mL (≈ 1980 µM). For the same compound, the “Solubility in β-CD solution as function of β-CD concentration” value ([3]; from the vicinity of 10^-3 Mol/l of β-CD) was “increase in proportion to the concentration of β-CD” and the solubility at 16 h ([3]; water, β-CD 0 Mol/l) was 444 µg/mL (≈ 962 µM).
For `CCCC(=O)OC1C=CC(C)=CC(NC(=O)C(C)=O)C2(C)C(=O)OC(CC(O)C=CC(C)=CC1)C(C)C2=O` (centres unmarked) [Lankacidin C 8-butylate], the solubility [1, 7] was 404 µg/mL (≈ 763 µM), the solubility [1, 8] was 9 µg/mL (≈ 17 µM) and the “ratio: Solubility” value ([1]; β-CD 10^-2 Mol/l vs water) was 44.9.
`CCC(=O)OC1C=CC(C)=CCC(O)C=CC(C)=CC(NC(=O)C(C)=O)C2(C)C(=O)OC(C1)C(C)C2=O` (centres unmarked) [C14-P, lankacidin C 14-propionate] showed a solubility at 1 h [4, 5] of 159 µg/mL (≈ 308 µM), a solubility at 1 h [4, 6] of 67 µg/mL (≈ 130 µM) and a solubility at 1 h [4, 9] of 21 µg/mL (≈ 40.7 µM). The solubility at 1 h [4, 10] was 273 µg/mL (≈ 529 µM), the solubility at 1 h [4, 11] was 114 µg/mL (≈ 221 µM) and the solubility at 1 h [4, 12] was 35 µg/mL (≈ 67.9 µM). The solubility at 1 h ([4]; water, β-CD, CD 0 Mol/l) was 19 µg/mL (≈ 36.9 µM) and the solubility at 1 h ([4]; water, γ-CD, CD 0 Mol/l) was 19 µg/mL (≈ 36.9 µM).
For `OC[C@H]1O[C@@H]2O[C@H]3[C@H](O)[C@@H](O)[C@@H](O[C@H]4[C@H](O)[C@@H](O)[C@@H](O[C@H]5[C@H](O)[C@@H](O)[C@@H](O[C@H]6[C@H](O)[C@@H](O)[C@@H](O[C@H]7[C@H](O)[C@@H](O)[C@@H](O[C@H]8[C@H](O)[C@@H](O)[C@@H](O[C@H]1[C@H](O)[C@H]2O)O[C@@H]8CO)O[C@@H]7CO)O[C@@H]6CO)O[C@@H]5CO)O[C@@H]4CO)O[C@@H]3CO` [cyclodextrin, β-cyclodextrin], the “Concentration of cyclodextrin in its saturated aqueous solution” value ([2]; water) was 1 mg/mL.
For `CC(=O)OC1C=CC(C)=CC(NC(=O)C(C)=O)C2(C)C(=O)OC(CC(OC(C)=O)C=CC(C)=CC1)C(C)C2=O` (centres unmarked) [Lankacidin C 8,14-diacetate, lankacidin C 8,14-diacetate], the solubility [1, 7] was 681 µg/mL (≈ 1250 µM), the solubility [1, 8] was 16.2 µg/mL (≈ 29.8 µM) and the “ratio: Solubility” value ([1]; β-CD 10^-2 Mol/l vs water) was 42.0.
With `CCC(=O)OC1C=CC(C)=CC(NC(=O)C(C)=O)C2(C)C(=O)OC(CC(O)C=CC(C)=CC1)C(C)C2=O` (centres unmarked) [C8-P, lankacidin C 8-propionate] the “Solubility in CD solution, C8-P compared with C14-P” value ([4]; CD solutions) was “better solubility than that of C14-P”, the solubility at 1 h [4, 5] was 3840 µg/mL (≈ 7450 µM) and the solubility at 1 h [4, 6] was 328 µg/mL (≈ 636 µM). For the same compound, the solubility at 1 h [4, 9] was 46 µg/mL (≈ 89.2 µM), the solubility at 1 h [4, 10] was 1610 µg/mL (≈ 3120 µM) and the solubility at 1 h [4, 11] was 249 µg/mL (≈ 483 µM). For the same compound, the solubility at 1 h [4, 12] was 54 µg/mL (≈ 105 µM), the solubility at 1 h ([4]; water, β-CD, CD 0 Mol/l) was 18 µg/mL (≈ 34.9 µM) and the solubility at 1 h ([4]; water, γ-CD, CD 0 Mol/l) was 19 µg/mL (≈ 36.9 µM).
